In ChEMBL document CHEMBL3991601, “The target landscape of clinical kinase drugs” (Science, 2017):
Calls of active or inactive are those of the source. Cut-off read from the data, not from the text of the source, for most assays here: actives have a measured Kd and inactives only a lower limit.

Tests used:
[1] = target: Serine/threonine-protein kinase B-raf (Homo sapiens, UniProt P15056)
[2] = target: Tyrosine-protein kinase BTK (Homo sapiens, UniProt Q06187)
[3] = target: Cyclin-dependent kinase 13 (Homo sapiens, UniProt Q14004)
Sequence of Cyclin-dependent kinase 13 (Q14004 whole entry): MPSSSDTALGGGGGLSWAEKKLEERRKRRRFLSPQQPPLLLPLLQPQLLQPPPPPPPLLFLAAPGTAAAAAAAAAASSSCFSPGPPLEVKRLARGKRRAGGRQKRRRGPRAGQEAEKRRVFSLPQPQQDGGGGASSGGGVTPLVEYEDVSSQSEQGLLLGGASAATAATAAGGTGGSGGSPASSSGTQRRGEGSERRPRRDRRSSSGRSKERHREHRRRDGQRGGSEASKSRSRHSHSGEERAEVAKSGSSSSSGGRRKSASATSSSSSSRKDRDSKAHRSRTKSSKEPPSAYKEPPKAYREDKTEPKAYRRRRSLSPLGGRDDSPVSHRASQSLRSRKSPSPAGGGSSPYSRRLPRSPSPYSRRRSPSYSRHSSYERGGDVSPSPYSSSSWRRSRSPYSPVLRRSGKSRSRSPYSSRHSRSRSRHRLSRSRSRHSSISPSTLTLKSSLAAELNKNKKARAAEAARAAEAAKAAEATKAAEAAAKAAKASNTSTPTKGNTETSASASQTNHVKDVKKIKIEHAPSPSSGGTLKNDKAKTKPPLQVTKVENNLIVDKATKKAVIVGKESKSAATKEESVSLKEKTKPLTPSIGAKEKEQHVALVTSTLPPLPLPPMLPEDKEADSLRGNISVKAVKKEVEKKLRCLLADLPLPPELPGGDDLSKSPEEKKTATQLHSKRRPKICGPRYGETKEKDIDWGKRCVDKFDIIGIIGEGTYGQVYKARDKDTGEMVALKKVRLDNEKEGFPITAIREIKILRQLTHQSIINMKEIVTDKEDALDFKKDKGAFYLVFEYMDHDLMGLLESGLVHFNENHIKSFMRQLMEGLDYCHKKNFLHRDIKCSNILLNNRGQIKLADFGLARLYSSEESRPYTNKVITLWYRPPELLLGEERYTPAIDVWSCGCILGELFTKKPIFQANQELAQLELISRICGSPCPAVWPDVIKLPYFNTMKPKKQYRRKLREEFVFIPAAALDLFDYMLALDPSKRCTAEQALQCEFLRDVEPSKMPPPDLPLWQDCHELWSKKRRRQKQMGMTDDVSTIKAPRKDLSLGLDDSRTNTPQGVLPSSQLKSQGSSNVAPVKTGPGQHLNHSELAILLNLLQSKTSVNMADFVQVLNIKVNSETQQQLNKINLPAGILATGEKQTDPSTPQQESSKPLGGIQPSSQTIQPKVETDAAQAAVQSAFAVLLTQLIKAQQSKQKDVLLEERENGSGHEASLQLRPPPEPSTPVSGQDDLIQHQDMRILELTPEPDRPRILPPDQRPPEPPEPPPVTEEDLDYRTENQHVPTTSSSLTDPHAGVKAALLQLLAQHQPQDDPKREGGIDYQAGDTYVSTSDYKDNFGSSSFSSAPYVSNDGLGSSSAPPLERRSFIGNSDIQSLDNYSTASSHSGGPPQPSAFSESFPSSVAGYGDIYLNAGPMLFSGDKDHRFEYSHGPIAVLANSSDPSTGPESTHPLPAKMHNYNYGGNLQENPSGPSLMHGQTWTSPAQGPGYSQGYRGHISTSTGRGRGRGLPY

[4] = target: Tyrosine-protein kinase CSK (Homo sapiens, UniProt P41240)
[5] = target: Casein kinase I isoform alpha (Homo sapiens, UniProt P48729)
Sequence of Casein kinase I isoform alpha (P48729 whole entry, canonical isoform): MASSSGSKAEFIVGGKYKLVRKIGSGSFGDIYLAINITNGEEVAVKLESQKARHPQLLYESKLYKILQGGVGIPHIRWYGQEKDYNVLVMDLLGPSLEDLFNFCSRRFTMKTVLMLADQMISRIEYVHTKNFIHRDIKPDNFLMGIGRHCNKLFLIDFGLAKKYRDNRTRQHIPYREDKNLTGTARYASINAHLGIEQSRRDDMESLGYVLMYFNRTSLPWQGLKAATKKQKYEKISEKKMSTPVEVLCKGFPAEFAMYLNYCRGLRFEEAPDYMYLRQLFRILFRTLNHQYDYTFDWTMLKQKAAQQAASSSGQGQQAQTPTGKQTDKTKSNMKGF

Ephrin type-A receptor 2 = Ephrin type-A receptor 2 (Homo sapiens, UniProt P29317)
Sequence of Ephrin type-A receptor 2 (P29317 whole entry): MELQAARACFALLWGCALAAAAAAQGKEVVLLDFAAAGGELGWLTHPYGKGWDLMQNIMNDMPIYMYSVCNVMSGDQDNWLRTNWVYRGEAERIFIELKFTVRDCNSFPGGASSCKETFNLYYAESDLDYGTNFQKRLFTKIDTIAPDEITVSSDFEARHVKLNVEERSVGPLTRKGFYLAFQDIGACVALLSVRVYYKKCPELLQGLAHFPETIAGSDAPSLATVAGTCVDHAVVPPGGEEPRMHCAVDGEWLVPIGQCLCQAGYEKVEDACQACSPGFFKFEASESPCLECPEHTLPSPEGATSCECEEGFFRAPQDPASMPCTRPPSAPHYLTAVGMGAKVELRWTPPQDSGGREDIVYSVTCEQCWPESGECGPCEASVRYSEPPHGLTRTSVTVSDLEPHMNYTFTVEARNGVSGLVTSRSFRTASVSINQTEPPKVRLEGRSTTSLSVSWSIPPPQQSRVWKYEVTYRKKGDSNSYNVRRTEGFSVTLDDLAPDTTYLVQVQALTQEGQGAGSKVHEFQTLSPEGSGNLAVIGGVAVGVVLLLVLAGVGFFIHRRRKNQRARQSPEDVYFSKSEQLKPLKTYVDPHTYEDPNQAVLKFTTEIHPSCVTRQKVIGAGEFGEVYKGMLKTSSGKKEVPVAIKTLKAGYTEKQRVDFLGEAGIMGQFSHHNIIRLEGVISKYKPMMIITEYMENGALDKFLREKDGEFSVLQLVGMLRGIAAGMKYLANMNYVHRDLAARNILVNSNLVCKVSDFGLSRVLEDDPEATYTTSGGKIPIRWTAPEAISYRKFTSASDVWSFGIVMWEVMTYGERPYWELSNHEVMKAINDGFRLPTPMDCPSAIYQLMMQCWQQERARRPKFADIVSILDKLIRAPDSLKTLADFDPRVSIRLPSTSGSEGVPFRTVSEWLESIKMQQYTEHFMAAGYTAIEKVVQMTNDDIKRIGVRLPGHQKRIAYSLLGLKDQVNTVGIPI

[6] = target: Fibroblast growth factor receptor 1 (Homo sapiens, UniProt P11362)
[7] = target: Mitogen-activated protein kinase 3 (Homo sapiens, UniProt P27361)
Sequence of Mitogen-activated protein kinase 3 (P27361 whole entry): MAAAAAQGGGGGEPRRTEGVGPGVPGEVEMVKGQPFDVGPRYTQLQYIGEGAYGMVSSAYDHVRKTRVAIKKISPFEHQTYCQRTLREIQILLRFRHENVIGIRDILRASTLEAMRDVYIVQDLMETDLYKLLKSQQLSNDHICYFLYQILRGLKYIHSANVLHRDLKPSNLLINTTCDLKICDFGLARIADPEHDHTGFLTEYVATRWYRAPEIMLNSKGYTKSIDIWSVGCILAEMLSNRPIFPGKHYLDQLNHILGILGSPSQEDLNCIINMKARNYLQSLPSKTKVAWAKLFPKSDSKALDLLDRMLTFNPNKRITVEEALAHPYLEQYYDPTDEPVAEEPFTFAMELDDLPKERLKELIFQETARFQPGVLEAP

[8] = target: T1, Phosphatidylinositol 5-phosphate 4-kinase type-2 gamma (Homo sapiens, UniProt Q8TBX8)
T1 sequence (Q8TBX8 whole entry): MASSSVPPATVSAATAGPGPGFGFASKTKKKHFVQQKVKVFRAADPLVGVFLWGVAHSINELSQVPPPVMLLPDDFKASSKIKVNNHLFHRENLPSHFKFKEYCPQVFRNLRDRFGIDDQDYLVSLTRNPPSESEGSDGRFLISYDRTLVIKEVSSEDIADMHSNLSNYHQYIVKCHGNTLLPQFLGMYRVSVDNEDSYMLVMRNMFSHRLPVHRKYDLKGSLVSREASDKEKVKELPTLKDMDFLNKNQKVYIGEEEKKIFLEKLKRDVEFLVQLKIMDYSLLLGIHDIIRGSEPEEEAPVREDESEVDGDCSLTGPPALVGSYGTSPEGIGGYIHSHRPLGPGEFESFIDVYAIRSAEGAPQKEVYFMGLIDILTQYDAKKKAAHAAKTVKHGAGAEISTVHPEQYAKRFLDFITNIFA

[9] = target: Protein kinase C beta type (Homo sapiens, UniProt P05771)
Sequence of Protein kinase C beta type (P05771 whole entry): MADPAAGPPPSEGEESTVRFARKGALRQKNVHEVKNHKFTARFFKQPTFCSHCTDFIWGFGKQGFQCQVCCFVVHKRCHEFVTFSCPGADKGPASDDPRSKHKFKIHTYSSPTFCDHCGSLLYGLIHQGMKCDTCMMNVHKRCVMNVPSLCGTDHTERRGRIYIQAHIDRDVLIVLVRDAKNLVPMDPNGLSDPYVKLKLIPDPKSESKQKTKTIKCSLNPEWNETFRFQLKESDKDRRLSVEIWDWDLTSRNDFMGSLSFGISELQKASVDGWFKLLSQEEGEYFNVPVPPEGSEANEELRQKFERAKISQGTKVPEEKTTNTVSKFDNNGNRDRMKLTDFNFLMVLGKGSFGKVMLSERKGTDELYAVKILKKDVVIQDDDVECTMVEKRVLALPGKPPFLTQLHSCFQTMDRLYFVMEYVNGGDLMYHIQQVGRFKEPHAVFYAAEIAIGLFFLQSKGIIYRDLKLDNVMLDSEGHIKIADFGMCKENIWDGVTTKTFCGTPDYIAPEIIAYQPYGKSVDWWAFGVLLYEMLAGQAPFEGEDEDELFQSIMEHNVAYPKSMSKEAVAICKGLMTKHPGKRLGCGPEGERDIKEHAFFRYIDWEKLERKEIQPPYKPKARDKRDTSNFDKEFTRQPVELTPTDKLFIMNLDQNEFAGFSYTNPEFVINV

Rab-like protein 3 = target: T2, Rab-like protein 3 (Homo sapiens, UniProt Q5HYI8)
T2 sequence (Q5HYI8 whole entry): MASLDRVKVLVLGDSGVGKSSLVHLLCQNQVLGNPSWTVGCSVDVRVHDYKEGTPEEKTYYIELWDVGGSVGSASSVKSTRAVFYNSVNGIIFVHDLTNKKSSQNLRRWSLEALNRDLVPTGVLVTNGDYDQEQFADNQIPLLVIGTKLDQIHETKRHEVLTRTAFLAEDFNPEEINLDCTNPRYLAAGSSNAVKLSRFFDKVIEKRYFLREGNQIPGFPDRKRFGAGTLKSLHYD

[10] = target: T3, Non-receptor tyrosine-protein kinase TNK1 (Homo sapiens, UniProt Q13470)
T3 sequence (Q13470 whole entry): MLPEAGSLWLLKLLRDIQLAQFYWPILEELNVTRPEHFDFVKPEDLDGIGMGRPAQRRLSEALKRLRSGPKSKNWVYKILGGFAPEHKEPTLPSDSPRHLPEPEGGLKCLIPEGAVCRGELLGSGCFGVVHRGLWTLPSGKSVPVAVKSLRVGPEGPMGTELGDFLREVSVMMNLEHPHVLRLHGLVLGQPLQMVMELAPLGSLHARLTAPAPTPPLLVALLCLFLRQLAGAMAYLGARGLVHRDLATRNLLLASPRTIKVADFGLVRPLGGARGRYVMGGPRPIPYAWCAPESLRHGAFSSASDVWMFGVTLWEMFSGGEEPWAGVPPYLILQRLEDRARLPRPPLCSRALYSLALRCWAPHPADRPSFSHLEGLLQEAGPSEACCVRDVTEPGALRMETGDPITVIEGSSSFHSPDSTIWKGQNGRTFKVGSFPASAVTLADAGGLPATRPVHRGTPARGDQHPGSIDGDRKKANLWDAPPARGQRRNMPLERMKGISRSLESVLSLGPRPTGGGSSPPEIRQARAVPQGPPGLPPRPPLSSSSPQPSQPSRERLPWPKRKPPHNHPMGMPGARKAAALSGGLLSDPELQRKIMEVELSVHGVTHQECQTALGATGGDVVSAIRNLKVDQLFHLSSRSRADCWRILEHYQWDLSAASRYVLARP

[11] = target: T4, General transcription and DNA repair factor IIH helicase subunit XPD (Homo sapiens, UniProt P18074); details: read-out: Kd apparent; k-562, colo 205, sk-n-be(2) and mv-4-11
T4 sequence (P18074 whole entry): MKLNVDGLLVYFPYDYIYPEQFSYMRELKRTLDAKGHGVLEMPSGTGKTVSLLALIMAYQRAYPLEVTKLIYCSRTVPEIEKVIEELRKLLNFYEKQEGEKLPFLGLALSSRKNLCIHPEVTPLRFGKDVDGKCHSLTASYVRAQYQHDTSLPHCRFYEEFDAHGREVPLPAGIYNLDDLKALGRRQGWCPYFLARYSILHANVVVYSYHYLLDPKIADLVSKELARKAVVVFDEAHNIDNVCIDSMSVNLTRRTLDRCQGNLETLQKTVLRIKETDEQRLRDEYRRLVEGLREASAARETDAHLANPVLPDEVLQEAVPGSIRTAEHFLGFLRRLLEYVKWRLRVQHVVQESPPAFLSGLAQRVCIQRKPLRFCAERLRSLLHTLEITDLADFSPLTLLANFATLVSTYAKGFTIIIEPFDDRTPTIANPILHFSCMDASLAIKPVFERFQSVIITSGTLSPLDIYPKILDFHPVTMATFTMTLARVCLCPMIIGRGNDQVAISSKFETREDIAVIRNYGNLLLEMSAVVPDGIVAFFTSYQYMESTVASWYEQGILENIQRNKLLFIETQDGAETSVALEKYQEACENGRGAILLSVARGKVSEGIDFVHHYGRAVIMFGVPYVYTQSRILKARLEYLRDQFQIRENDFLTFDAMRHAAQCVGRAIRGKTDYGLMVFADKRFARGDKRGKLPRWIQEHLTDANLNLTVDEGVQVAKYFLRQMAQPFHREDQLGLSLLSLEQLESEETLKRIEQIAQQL
Note: in the data inactive means no Kd found up to 30 µM.

Sequence of Serine/threonine-protein kinase B-raf (P15056 whole entry): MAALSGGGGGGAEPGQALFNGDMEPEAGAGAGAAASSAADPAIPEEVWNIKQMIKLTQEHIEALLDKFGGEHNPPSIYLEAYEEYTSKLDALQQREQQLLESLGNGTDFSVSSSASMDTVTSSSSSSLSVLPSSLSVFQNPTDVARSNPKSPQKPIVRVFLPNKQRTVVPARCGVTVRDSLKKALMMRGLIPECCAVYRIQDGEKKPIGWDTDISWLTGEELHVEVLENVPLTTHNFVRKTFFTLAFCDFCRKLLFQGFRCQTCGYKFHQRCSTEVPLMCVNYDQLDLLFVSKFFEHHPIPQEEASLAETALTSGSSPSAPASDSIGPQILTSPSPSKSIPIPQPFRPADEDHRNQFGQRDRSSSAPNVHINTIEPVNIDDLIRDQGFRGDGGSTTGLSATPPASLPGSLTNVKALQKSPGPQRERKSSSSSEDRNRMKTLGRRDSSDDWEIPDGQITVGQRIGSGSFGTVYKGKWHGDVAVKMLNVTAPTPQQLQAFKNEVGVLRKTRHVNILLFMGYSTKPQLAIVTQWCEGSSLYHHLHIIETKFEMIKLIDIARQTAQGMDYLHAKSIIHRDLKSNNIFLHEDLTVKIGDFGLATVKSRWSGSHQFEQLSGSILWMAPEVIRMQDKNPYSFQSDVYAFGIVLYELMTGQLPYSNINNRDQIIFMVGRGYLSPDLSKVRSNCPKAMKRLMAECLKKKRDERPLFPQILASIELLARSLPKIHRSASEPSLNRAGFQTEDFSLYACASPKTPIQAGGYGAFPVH

Structure (SMILES)	Kd [1]	Kd [2]	Kd [3]	Kd [4]	Kd [5]	Kd (Ephrin type-A receptor 2)	Kd [6]	Kd [7]	Kd [8]	Kd [9]	Kd (Rab-like protein 3)	Kd [10]	Kd [11]
CCS(=O)(=O)N1CC(CC#N)(n2cc(-c3ncnc4[nH]ccc34)cn2)C1 [BARICITINIB]	> 30 µM (inactive)	> 30 µM (inactive)	> 30 µM (inactive)	> 30 µM (inactive)	> 30 µM (inactive)	> 30 µM (inactive)	> 30 µM (inactive)	> 30 µM (inactive)	> 30 µM (inactive)	26.3 µM (active)	> 30 µM (inactive)	0.622 µM	> 30 µM (inactive)
CN1N=C(N)c2cn([C@@H]3O[C@H](COP(=O)(O)O)[C@@H](O)[C@H]3O)c3ncnc1c23 [TRICIRIBINE PHOSPHATE]	> 30 µM (inactive)	> 30 µM (inactive)	> 30 µM (inactive)	> 30 µM (inactive)	> 30 µM (inactive)	> 30 µM (inactive)	> 30 µM (inactive)	> 30 µM (inactive)	> 30 µM (inactive)	> 30 µM (inactive)	> 30 µM (inactive)	> 30 µM (inactive)	> 30 µM (inactive)
CCn1c(=O)c(-c2cc[nH]n2)cc2c(C)nc(N)nc21 [VOXTALISIB]	> 30 µM (inactive)	> 30 µM (inactive)	> 30 µM (inactive)	> 30 µM (inactive)	> 30 µM (inactive)	> 30 µM (inactive)	> 30 µM (inactive)	> 30 µM (inactive)	> 30 µM (inactive)	> 30 µM (inactive)	–	> 30 µM (inactive)	> 30 µM (inactive)
C[C@@H](c1ccc2nccn2c1)n1nnc2ncc(-c3cnn(C)c3)nc21 [SAVOLITINIB]	> 30 µM (inactive)	> 30 µM (inactive)	> 30 µM (inactive)	> 30 µM (inactive)	> 30 µM (inactive)	> 30 µM (inactive)	> 30 µM (inactive)	> 30 µM (inactive)	–	> 30 µM (inactive)	> 30 µM (inactive)	> 30 µM (inactive)	> 30 µM (inactive)
CC[C@H](Nc1ncnc2[nH]cnc12)c1nc2cccc(F)c2c(=O)n1-c1ccccc1 [IDELALISIB]	> 30 µM (inactive)	> 30 µM (inactive)	> 30 µM (inactive)	> 30 µM (inactive)	> 30 µM (inactive)	> 30 µM (inactive)	> 30 µM (inactive)	> 30 µM (inactive)	> 30 µM (inactive)	> 30 µM (inactive)	> 30 µM (inactive)	> 30 µM (inactive)	–
CN1CCC(COc2cnc(-c3cccc(Cn4nc(-c5cccc(C#N)c5)ccc4=O)c3)nc2)CC1 [TEPOTINIB]	> 30 µM (inactive)	> 30 µM (inactive)	> 30 µM (inactive)	> 30 µM (inactive)	> 30 µM (inactive)	> 30 µM (inactive)	> 30 µM (inactive)	> 30 µM (inactive)	> 30 µM (inactive)	> 30 µM (inactive)	–	> 30 µM (inactive)	> 30 µM (inactive)
CC[C@@H]1C(=O)N(C)c2cnc(Nc3ccc(C(=O)N[C@H]4CC[C@H](N5CCN(CC6CC6)CC5)CC4)cc3OC)nc2N1C(C)C [VOLASERTIB]	> 30 µM (inactive)	> 30 µM (inactive)	> 30 µM (inactive)	> 30 µM (inactive)	> 30 µM (inactive)	> 30 µM (inactive)	> 30 µM (inactive)	> 30 µM (inactive)	> 30 µM (inactive)	> 30 µM (inactive)	> 30 µM (inactive)	> 30 µM (inactive)	–
CO[C@H]1C[C@@H]2CC[C@@H](C)[C@@](O)(O2)C(=O)C(=O)N2CCCC[C@H]2C(=O)O[C@H]([C@H](C)C[C@@H]2CC[C@@H](OCCO)[C@H](OC)C2)CC(=O)[C@H](C)/C=C(\C)[C@@H](O)[C@@H](OC)C(=O)[C@H](C)C[C@H](C)/C=C/C=C/C=C/1C [EVEROLIMUS]	> 30 µM (inactive)	> 30 µM (inactive)	> 30 µM (inactive)	> 30 µM (inactive)	> 30 µM (inactive)	> 30 µM (inactive)	> 30 µM (inactive)	> 30 µM (inactive)	> 30 µM (inactive)	> 30 µM (inactive)	–	> 30 µM (inactive)	> 30 µM (inactive)
COC(=O)[C@@]1(O)C[C@H]2O[C@]1(C)n1c3ccccc3c3c4c(c5c6ccccc6n2c5c31)C(=O)NC4 [K-252A]	> 30 µM (inactive)	1.57 µM (active)	> 30 µM (inactive)	> 30 µM (inactive)	> 30 µM (inactive)	> 30 µM (inactive)	> 30 µM (inactive)	> 30 µM (inactive)	> 30 µM (inactive)	–	> 30 µM (inactive)	0.287 µM (active)	> 30 µM (inactive)

Continued, values first:

Kd [1]	Kd [2]	Kd [3]	Kd [4]	Kd [5]	Kd (Ephrin type-A receptor 2)	Kd [6]	Kd [7]	Kd [8]	Kd [9]	Kd (Rab-like protein 3)	Kd [10]	Kd [11]	Structure (SMILES)
> 30 µM (inactive)	> 30 µM (inactive)	> 30 µM (inactive)	> 30 µM (inactive)	> 30 µM (inactive)	> 30 µM (inactive)	> 30 µM (inactive)	> 30 µM (inactive)	> 30 µM (inactive)	> 30 µM (inactive)	> 30 µM (inactive)	> 30 µM (inactive)	> 30 µM (inactive)	C[C@@H](Nc1cc(F)cc(F)c1)c1cc(C(=O)N(C)C)cc2c(=O)cc(N3CCOCC3)oc12 [AZD-8186]
> 30 µM (inactive)	> 30 µM (inactive)	> 30 µM (inactive)	> 30 µM (inactive)	> 30 µM (inactive)	> 30 µM (inactive)	> 30 µM (inactive)	> 30 µM (inactive)	> 30 µM (inactive)	> 30 µM (inactive)	> 30 µM (inactive)	> 30 µM (inactive)	> 30 µM (inactive)	Cc1cc([C@@H](C)Nc2ccccc2C(=O)O)c2nc(N3CCOCC3)cc(=O)n2c1 [AZD-6482]
> 30 µM (inactive)	> 30 µM (inactive)	> 30 µM (inactive)	> 30 µM (inactive)	> 30 µM (inactive)	> 30 µM (inactive)	> 30 µM (inactive)	> 30 µM (inactive)	1.59 µM (active)	> 30 µM (inactive)	> 30 µM (inactive)	> 30 µM (inactive)	> 30 µM (inactive)	O=C(Nc1ccc(-c2ccnc(Nc3ccc(N4CCOCC4)cc3)n2)cc1)C1CCCN1 (centres undefined) [XL-019]
